Measured values as given in publication PMC5469503 (PLoS Pathogens, 2017).

How the values were obtained:
[1] = target: T1, V1 subcomplex of the V-ATPase (Saccharomyces cerevisiae, UniProt P16140+P17255); experiment: fluorescence titration (TNP-ATP emission); settings: pH 7.9, 10.0 °C, 25 mM Tris-HCl, 0.15 M NaCl, 1 mM MgCl2, 0.5 mM DTT, 0.25 μM V1; nucleotide site
T1 construct: gene VMA1

[2] = target: V-ATPase from S. cerevisiae, intact, detergent solubilized (A3B3CDE3FG3Hac8c'c''def), 3xFLAG on the A-subunit (S. cerevisiae) (UniProt P16140); experiment: cryo-EM structure

Substance | Kd [1] [µM] | stoichiometry N [2]
2',3'-O-(2,4,6-trinitrophenyl) adenosine 5'-triphosphate [TNP-ATP] | 0.16 ± 0.05 | 
SidK, full length (residues 1 to 573) (natural protein) |  | 3
